# Test results from patent US7304077B2, “Chemical compounds” (AstraZeneca AB, priority 2001, dated 2007).
row,melting point [°C],Structure (SMILES)
1,218,COc1cccc(C(=O)N(C)CCN2CCC(Oc3ccc(F)c(F)c3)CC2)c1.Cl
2,219,CS(=O)(=O)c1cccc(C(=O)NCCN2CCC(Oc3ccc(Cl)c(Cl)c3)CC2)c1.Cl
3,212,CS(=O)(=O)c1cccc(C(=O)NCCCN2CCC(Oc3ccc(Cl)c(Cl)c3)CC2)c1.Cl
4,112 to 114,"CS(=O)(=O)Cc1cccc(C(=O)NCCN2CCC(Oc3ccc(Cl)c(Cl)c3)CC2)c1 [Compound 5 of Table I, N-{2-[4-(3,4-dichlorophenoxy)-1-piperidinyl]ethyl}-3-[(methylsulfonyl)methyl]benzamide]"
5,179 to 181,"CS(=O)(=O)Cc1ccc(C(=O)NCCN2CCC(Oc3ccc(Cl)c(Cl)c3)CC2)cc1 [Compound 7 of Table I, N-{2-[4-(3,4-dichlorophenoxy)-1-piperidinyl]ethyl}-4-[(methylsulfonyl)methyl]benzamide]"
6,150 to 151,"CS(=O)(=O)Nc1cccc(C(=O)NCCN2CCC(Oc3ccc(Cl)c(Cl)c3)CC2)c1 [Compound 24 of Table I, N-{2-[4(3,4-dichlorophenoxy)-1-piperidinyl]ethyl}-3-[(methylsulfonyl)amino]benzamide]"
7,114 to 116,"O=C(Cn1nnc(N2CCCC2)n1)NCCN1CCC(Oc2ccc(Cl)c(Cl)c2)CC1 [Compound 34 of Table II, N-{2-[4-(3,4-dichlorophenoxy)-1-piperidinyl]ethyl}-2-[5-(1-pyrrolidinyl)-2H-tetraazol-2-yl]acetamide]"
8,168 to 169,"NS(=O)(=O)c1cccc(C(=O)NCCN2CCC(Oc3ccc(Cl)c(Cl)c3)CC2)c1 [Example 22, 3-(aminosulfonyl)-N-{2-[4-(3,4-dichlorophenoxy)-1-piperidinyl]ethyl}benzamide]"
9,169 to 217,"CCn1cc(C(=O)NCCN2CCC(Oc3ccc(Cl)c(Cl)c3)CC2)c(=O)c2ccc(C)nc21 [Example 23, N-{2-[4-(3,4-dichlorophenoxy)-1-piperidinyl]ethyl}-1-ethyl-7-methyl-4-oxo-1,4-dihydro[1,8]naphthyridine-3-carboxamide]"
10,142 to 143,"CS(=O)(=O)c1ccc(C(=O)NCCN2CCC(Oc3ccc(Cl)c(Cl)c3)CC2)s1 [Example 27, N-{2-[4-(3,4-dichlorophenoxy)-1-piperidinyl]ethyl}-5-(methylsulfonyl)-2-thiophenecarboxamide]"
11,154 to 155,"O=C(NCCN1CCC(Oc2ccc(Cl)c(Cl)c2)CC1)c1ccc(-n2cccn2)nc1 [Example 28, N-{2-[4-(3,4-dichlorophenoxy)-1-piperidinyl]ethyl}-6-(1H-pyrazol-1-yl)nicotinamide]"
12,100 to 101,"CS(=O)(=O)c1ccc(C(=O)NCCN2CCC(Oc3ccc(Cl)c(Cl)c3)CC2)cc1 [Example 29, N-{2-[4-(3,4-dichlorophenoxy)-1-piperidinyl]ethyl}-4-(methylsulfonyl)benzamide]"
13,150 to 151,"O=C(NCCN1CCC(Oc2ccc(Cl)c(Cl)c2)CC1)c1cn2ccccc2n1 [Example 30, N-{2-[4-(3,4-dichlorophenoxy)-1-piperidinyl]ethyl}imidazo[1,2-a]pyridine-2-carboxamide]"
14,161 to 162,"O=C(NCCN1CCC(Oc2ccc(Cl)c(Cl)c2)CC1)c1nnc(Nc2ccccc2Cl)o1 [Example 31, 5-(2-chloroanilino)-N-{2-[4-(3,4-dichlorophenoxy)-1-piperidinyl]ethyl}-1,3,4-oxadiazole-2-carboxamide]"
15,109 to 110,"O=C(NCCN1CCC(Oc2ccc(F)cc2Cl)CC1)c1ccc(-n2cccn2)nc1 [Example 32, N-{2-[4-(2-chloro-4-fluorophenoxy)-1-piperidinyl]ethyl}-6-(1H-pyrazol-1-yl)nicotinamide]"
16,50 to 51,"CS(=O)(=O)c1cccc(C(=O)NCCN2CCC(Oc3ccc(F)cc3Cl)CC2)c1 [Example 33, N-{2-[4-(2-chloro-4-fluorophenoxy)-1-piperidinyl]ethyl}-3-(methylsulfonyl)benzamide]"
17,171 to 172,"Cc1c(Cl)ccc(OC2CCN(CCNC(=O)c3ccc(S(C)(=O)=O)cc3)CC2)c1Cl [Example 34, N-{2-[4-(2,4-dichloro-3-methylphenoxy)-1-piperidinyl]ethyl}-4-(methylsulfonyl)benzamide]"
18,177 to 178,"Cc1c(Cl)ccc(OC2CCN(CCNC(=O)c3ccc(S(C)(=O)=O)s3)CC2)c1Cl [Example 35, N-{2-[4-(2,4-dichloro-3-methylphenoxy)-1-piperidinyl]ethyl}-5-(methylsulfonyl)-2-thiophenecarboxamide]"
19,71 to 72,"Cc1c(Cl)ccc(OC2CCN(CCNC(=O)c3ccccc3S(C)(=O)=O)CC2)c1Cl [Example 36, N-{2-[4-(2,4-dichloro-3-methylphenoxy)-1-piperidinyl]ethyl}-2-(methylsulfonyl)benzamide]"
20,123 to 124,"Cc1cc(OC2CCN(CCNC(=O)c3ccc(S(C)(=O)=O)cc3)CC2)ccc1Cl [Example 37, N-{2-[4-(4-chloro-3-methylphenoxy)-1-piperidinyl]ethyl}-4-(methylsulfonyl)benzamide]"
21,183 to 184,"Cc1cc(OC2CCN(CCNC(=O)c3ccc(-n4cccn4)nc3)CC2)ccc1Cl [Example 38, N-{2-[4-(4-chloro-3-methylphenoxy)-1-piperidinyl]ethyl}-6-(1H-pyrazol-1-yl)nicotinamide]"
22,80 to 81,"NS(=O)(=O)c1cc(C(=O)NCCN2CCC(Oc3ccc(F)c(F)c3)CC2)ccc1Cl [Example 40, 3-(aminosulfonyl)-4-chloro-N-{2-[4-(3,4-difluorophenoxy)-1-piperidinyl]ethyl}benzamide]"
23,146 to 147,"N#Cc1ccccc1C(=O)NCCN1CCC(Oc2ccc(F)c(F)c2)CC1 [Example 41, 2-cyano-N-{2-[4-(3,4-difluorophenoxy)-1-piperidinyl]ethyl}benzamide]"
24,108 to 109,"CS(=O)(=O)c1ccc(C(=O)NCCN2CCC(Oc3ccc(F)c(F)c3)CC2)c(Cl)c1 [Example 42, 2-chloro-N-{2-[4-(3,4-difluorophenoxy)-1-piperidinyl]ethyl}-4-(methylsulfonyl)benzamide]"
25,106 to 107,"N#Cc1cccc(C(=O)NCCN2CCC(Oc3ccc(F)c(F)c3)CC2)c1 [Example 43, 3-cyano-N-{2-[4-(3,4-difluorophenoxy)-1-piperidinyl]ethyl}benzamide]"
26,115 to 116,"CS(=O)(=O)Cc1ccc(C(=O)NCCN2CCC(Oc3ccc(F)c(F)c3)CC2)cc1 [Example 44, N-{2-[4-(3,4-difluorophenoxy)-1-piperidinyl]ethyl}-4-[(methylsulfonyl)methyl]benzamide]"
